From patent US20200323898A1, “COMPOSITIONS AND METHODS FOR TREATING ACUTE MYELOID LEUKEMIA” (MEMORIAL SLOAN KETTERING CANCER CENTER, priority 2017, published 2020)
“Also recorded” adds a separate entry of the source.

Key:
PDXK = biological target: T1, PDXK (Homo sapiens, UniProt O00764); experiment: Intracellular PLP levels (PDXK inhibition) in human Molm13 leukemic cells; assay type: cell-based; conditions: human Molm13 leukemic cells (FIG. 17B, 18B)
T1 construct: endogenous in cells; host or cells: human Molm13 (MOLM13) AML cells
T1 sequence (O00764 1-312): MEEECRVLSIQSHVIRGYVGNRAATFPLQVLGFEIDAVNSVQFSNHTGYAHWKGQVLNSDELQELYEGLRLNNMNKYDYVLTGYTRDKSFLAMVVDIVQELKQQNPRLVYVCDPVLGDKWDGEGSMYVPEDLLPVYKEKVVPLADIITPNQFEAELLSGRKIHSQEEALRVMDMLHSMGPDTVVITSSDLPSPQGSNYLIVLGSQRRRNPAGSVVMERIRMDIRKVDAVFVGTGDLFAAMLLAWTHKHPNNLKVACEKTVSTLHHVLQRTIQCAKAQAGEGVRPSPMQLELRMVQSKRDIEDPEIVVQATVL
Protocol: LC-MS grade solvents were purchased from Thermo Fisher Scientific (Waltham, Mass.), metabolite standards were purchased from Sigma (St. Louis, Mo.) unless stated otherwise. Nras(G12D)/MLL-AF9 cells infected with viruses encoding Pdxk shRNAs were harvested after 5 days of doxycycline induction. Human MOLM13 cells infected with viruses encoding Pdxk sgRNAs were harvested at day 11 post infection. Nras(G12D)/MLL-AF9 cells or MOLM13 cells were treated with indicated concentrations of isoniazid and harvested after 5 days treatment.
In each case, 2 million cells were collected by centrifugation at 440×g, media was aspirated and 1004 of ice-cold 10% trichloroacetic acid with or without 100 ng/mL d3-pyridoxal (d3-PL), d3-pyridoxine (d3-PN), d3-pyridoxamine (d3-PM), d3-pyridoxal phosphate (d3-PLP) (IsoSciences LLC, Ambler Pa.) was added for metabolite extraction. For experiments involving isoniazid treatment, cells were washed once with PBS to remove residual drug and minimize post-lysis reactions between isoniazid and PLP, which was confirmed by monitoring the d3-PLP internal standard. After overnight incubation at −80° C., samples were vortexed and transferred to 1.7 mL conical eppendorf tubes and centrifuged at 21,000×g for 20 min at 4° C. The supernatant was transferred to autosampler vials for LC-MS analysis. Vitamin B species separation was performed using an Agilent 1290 infinity pump and XSelect HSS T3 column (150×2.1 mm, 3.5 μm; Waters Corporation, Milford Mass.). Mobile phase A was 0.1% heptaflurobutyric acid (HFBA, Thermo Fisher, Waltham Mass.) and 0.1% formic acid (FA, Thermo Fisher, Waltham Mass.) in water, mobile phase B was 0.1% HFBA and 0.1% FA in acetonitrile. The injection volume was 10 μL and LC gradient conditions were: 0 min: 0% B; 1 min: 0% B; 7 min: 25% B; 8 min: 25% B; 9 min: 100% B; 10.5 min: 100% B, with 4.5 min of re-equilibration time. MS detection was performed using an Agilent 6230 TOF accurate mass spectrometer with Dual JetStream source operating in positive ionization mode. MS parameters were: gas temp 250° C.; gas flow: 13 L/min; nebulizer pressure: 45 psig; sheath gas temp: 225° C.; sheath gas flow: 12 L/min; VCap: 3,500 V; Fragmentor: 175 V; Skimmer: 65 V; Octopole RF: 750 V. Active mass axis correction was performed using a second nebulizer and pyridine (80.049480) and roxithromycin (837.53185). Data was acquired from m/z 50-1700 at 1.5 spectra/sec. Accurate mass (±20 ppm) and retention time was confirmed relative to the pure standards. Data analysis was performed using MassHunter software (Agilent, Santa Clara Calif.).

human leukemic cells [1] = experiment: Proliferation / growth of human leukemic cell lines cultured with compound; assay type: cell-based; conditions: indicated leukemic cell lines (FIG. 17C, 18C)
Protocol: The average and STDEV of relative cell proliferation are shown.
Mouse AML cell lines, human AML cell lines, iMEF cell line and 3T3 cell line were infected with virus encoding Cas9 (Addgene 52962, Watertown Mass.) followed with blastcitidin selection to generate Cas9 cell lines. All viral sgRNA infection experiments were performed on Cas9 cell lines. All viral shRNA infection experiments were performed on cell lines carrying rtTA3. Mouse leukemic cell lines including Nras(G12D)/MLL-AF9, MLL-AF9, Nras(G12D)/IDH, Nras(G12D)/NPM1, and IDH/Flt3 were cultured in RPMI medium supplemented with 10% Fetal Bovine Serum (FBS), L-glutamine, penicillin streptomycin, recombinant mouse SCF, IL-3 and IL-6. Human leukemic cell lines MOLM13, M12, Semk2, THP1, and K562 were cultured in RPMI medium supplemented with 10% FBS, L-glutamine, penicillin, and streptomycin. Vitamin B6 depleted medium (VB6−) was prepared by customized pyridoxin (−) RPMI (Gibco, Gaithersburg, Md.) with 10% dialyzed FBS, L-glutamine, penicillin, and streptomycin. Pyridoxin hydrochloride (Sigma, St Louis Mo.) was added back to VB6(−) medium to make the VB6 (+) medium used for leukemia and MEF culture. Control or gene targeting sgRNAs or shRNAs were delivered by lentivirus. Spin infections were performed at 37° C. and 1500 RPM for 60 minutes. After spin infection, viral supernatants were substituted with leukemic cell culture medium. For compound treatment, isoniazid was added in culture medium at indicated concentrations.
For competition and cell proliferation experiments, mouse or human leukemic cells were infected with viruses encoding sgRNAs or shRNAs. Spin infections were performed at 37 degree and 1500 RPM for 60 minutes. After spin infection, viral supernatants were substituted with leukemic cell culture medium. GFP+ percentage or cell number was monitored during culture using guava flow cytometer. The absolute cell number was measured by using flow cytometry absolute count standard (Bangs Laboratories Inc., Fishers Ind.). The experimental results were analyzed by guavasoft software.

[2] = tested on: Nras(G12D)/MLL-AF9 leukemic cells; experiment: Metabolite rescue of isoniazid proliferative block in Nras(G12D)/MLL-AF9 leukemic cells; assay type: cell-based, mouse; conditions: exogenous addition of metabolite with isoniazid, day 4 (FIG. 4D-4F)
From the text: The average and SEM of fold of cell proliferation are shown. “*” represents p<0.05 of one-way ANOVA test, “**” represents p<0.01 of one-way ANOVA test, “***” represents p<0.001 of one-way ANOVA test. […] The average and SEM of fold of cell proliferation are shown. “*” represents p<0.05 of one-way ANOVA test, “**” represents p<0.01 of one-way ANOVA test, “***” represents p<0.001 of one-way ANOVA test. […] The average and SEM of fold of cell proliferation are shown. “*” represents p<0.05 of one-way ANOVA test, “**” represents p<0.01 of one-way ANOVA test, “***” represents p<0.001 of one-way ANOVA test.

[3] = tested on: Nras(G12D)/MLL-AF9 leukemia; experiment: AML mouse model: sub-lethally irradiated mice transplanted with Nras(G12D)/MLL-AF9 cells, compound treatment; assay type: in vivo; conditions: daily dosing vs PBS control; isoniazid 90 mg/kg intraperitoneally
From the text: PDXK shRNAs were cloned into a doxycycline inducible H2 vector (D9891-25G, Sigma-Aldrich, St. Louis, Mo.). Leukemic cells were infected with viruses encoding shRNAs targeting Renilla luciferase or PDXK, followed by either in vitro culture or transplantation. For in vitro culture experiments, doxycycline was supplemented into culture medium, and the percentage of GFP^+ cells was monitored. For in vivo AML mouse model experiments, the dietary feed of the mice was supplemented with doxycycline, and luciferase expression levels were monitored. For in vivo drug efficacy experiments, leukemic cells were transplanted into sub-lethally irradiated mice. Control PBS or isoniazid (90 mg/kg) was injected 6 hours after transplant and then daily into the transplant containing mice, and luciferase expression levels were monitored. High-performance liquid chromatography-mass spectrometry (HPLC-MS) was performed as previously described in A. M. Intlekofer et al., Nat Chem Biol 13, 494-500 (2017).
For isoniazid injection experiment, Nras(G12D)/MLL-AF9 leukemic cells were collected and resuspended in PBS at a concentration of 5 million/ml. 5-6 weeks old B6-LY5 mice (Charles River Labs, Wilmington Mass.) were sublethally irradiated (450 cGy) and transplanted with 1 million leukemic cells through tail vein injection. PBS or 90 mg/kg isoniazid were intraperitoneally injected daily.
The leukemia disease progress was monitored by in vivo bioluminescent imaging using IVIS Lumina image system (Xenogen) every 3 days. Before imaging, all mice were anesthetized with 2% isoflurane, and anesthesia was also maintained during the image acquisition inside Xenogen dark chamber. 300 mg/kg D-Luciferin (Gold Biotechnology Olivette, Mo.) in PBS at 15 mg/ml was intraperitoneally injected ˜12 minutes before image capturing. The bioluminescence was acquired and quantitatively analyzed by the Living Image software.

[4] = tested on: Nras(G12D)/MLL-AF9 leukemic cells; experiment: Viability of Nras(G12D)/MLL-AF9 leukemic cells cultured with AOA or myriocin; assay type: cell-based, mouse; conditions: day 3 (FIG. 33A, 34A)
human leukemic cells [5] = experiment: Viability of human leukemic cell lines cultured with AOA; assay type: cell-based; conditions: human Molm13, Thp1, ml2, Nomo1, Semk2, Kasumi leukemic cells, day 3 (FIG. 34B-34G)

CC[C@H](CO)Nc1nc(N(C)Cc2ccccc2)c2ncn(C(C)C)c2n1 [aftin-4]
PDXK inhibition (PDXK): can nhibit PDXK | intracellular levels of PLP (PDXK): reduced intracellular levels of PLP | growth of human AML cells in vitro (human leukemic cells [1]): can suppress the growth; also recorded: inhibited the growth

NCCCCN [putrescine]
rescue of proliferative block produced by isoniazid [2]: partially rescued

NOCC(=O)O [AOA, aminooxyacetic acid]
animal survival [3]: extended survival | leukemia disease progression (luciferase signal) [3]: significantly delayed leukemia disease maintenance | viability of leukemic cells in vitro [4]: reduced the viability | viability of leukemic cells in vitro (human leukemic cells [5]): reduced the viability

O=c1ccn([C@@H]2O[C@H](CO)[C@@H](O)[C@H]2O)c(=O)[nH]1 [uridine]
rescue of proliferative block produced by isoniazid [2]: partially rescued
